Source: article PMC5882164, “A novel calcimimetic agent, evocalcet (MT-4580/KHK7580), suppresses the parathyroid cell function with little effect on the gastrointestinal tract or CYP isozymes in vivo and in vitro” (PLoS ONE, 2018)
“And” between values parts separate entries of the source, which are not always exact repeats. Equal entries are not always repeated.

How the values were obtained:
[1] = test system: serum PTH; assay: Serum PTH reduction in common marmosets; format: in vivo, common marmoset; parameters: Serum PTH levels: unit not given here
Procedure: The study of effect of evocalcet on emesis in common marmoset was performed by referencing a previously reported method. The marmosets (n = 24) used for this study were housed in cages (460 × 600 × 655 mm) with environmental enrichments (wooden perches, swing, and balls) and acclimated for at least 4 weeks. The marmosets were fasted from evening on the day before administration. […] The serum PTH level was measured using a Porcine Intact PTH ELISA kit (Immutopics, Inc., San Clemente, CA, USA). To evaluate the emetic effects in marmosets, evocalcet (50 or 150 μg/kg) or cinacalcet (1500 or 5000 μg/kg) was orally administered (n = 6/drug, dose down titration, n = 12 in total). The observation of emesis was conducted until 4 h after the administration.

[2] = test system: gastric emptying; assay: Evaluation of gastric emptying in rats (phenol red); format: in vivo, rat
Procedure: The study of gastric emptying in rats was performed by referencing a previously reported method. […] The rats were divided into eight body-weight-matched groups (n = 8/group). […] Ten minutes later, 0.05 w/v% phenol red, a non-absorbable marker solution (1.5 mL/body), was orally administered. Thirty minutes after the administration of phenol red, the rats were euthanized by cervical dislocation, and the gastric body clamped at the cardiac and pyloric part of the stomach was obtained. The stomach was homogenized by adding 0.1 M NaOH and centrifugated. The supernatant was mixed with 20 w/v% trichloroacetic acid. After centrifugation, the supernatant was mixed with the same volume of 0.5 mol/L NaOH, and the absorbance was measured at 560 nm. The gastric emptying rate was calculated by the following formula: […]=[1-(opticaldensity[[…])]×100

[3] = test system: serum calcium; assay: Normal rat study: serum calcium level after oral administration; format: in vivo; parameters: Serum Ca: unit not given here; conditions: normal rats
Procedure: (§1) After acclimatization, rats were divided into nine groups (n = 10/group) matched in terms of body weight, and their serum PTH and calcium levels. Vehicle, 0.5% (w/v) methyl cellulose (Wako Pure Chemical Industries, Ltd.) solution orally administered to vehicle treatment group rats. Evocalcet (0.03, 0.1, 0.3, or 1 mg/kg), or cinacalcet (1, 3, 10, or 30 mg/kg) were suspended in the vehicle solution and orally administered to each drug treatment group. Blood samples were collected from the tail vein before and at 0.5, 2, 4, 6, 8, and 24 h after the oral administration.
(§2) The serum PTH level was measured using a Rat Intact PTH ELISA kit (Immutopics, Inc., San Clemente, CA). The serum calcium, phosphate and BUN levels were measured using an auto analyzer (Hitachi High-Technologies Corporation., Tokyo, Japan) or the following test kits: the Calcium E-test WAKO, the Phospha C-test WAKO, or the Blood Urea nitrogen B-test WAKO (Wako Pure Chemical Industries, Ltd., Osaka, Japan).

[4] = test system: serum PTH; assay: Normal rat study: serum PTH level after oral administration; format: in vivo; conditions: normal rats
Procedure: as §1, §2

[5] = evocalcet 0.03 mg/kg oral, 0 h (before administration), group mean, n = 10
[6] = evocalcet 0.03 mg/kg oral, 0 h (before administration), individual rats
[7] = evocalcet 0.03 mg/kg oral, 0.5 h, group mean, n = 10
[8] = evocalcet 0.03 mg/kg oral, 0.5 h, individual rats
[9] = evocalcet 0.03 mg/kg oral, 2 h, group mean, n = 10
[10] = evocalcet 0.03 mg/kg oral, 2 h, individual rats
[11] = evocalcet 0.03 mg/kg oral, 4 h, group mean, n = 10
[12] = evocalcet 0.03 mg/kg oral, 4 h, individual rats
[13] = evocalcet 0.03 mg/kg oral, 6 h, group mean, n = 10
[14] = evocalcet 0.03 mg/kg oral, 6 h, individual rats
[15] = evocalcet 0.03 mg/kg oral, 8 h, group mean, n = 10
[16] = evocalcet 0.03 mg/kg oral, 8 h, individual rats
[17] = evocalcet 0.03 mg/kg oral, 24 h, group mean, n = 10
[18] = evocalcet 0.03 mg/kg oral, 24 h, individual rats
[19] = evocalcet 0.1 mg/kg oral, 0 h (before administration), individual rats
[20] = evocalcet 0.1 mg/kg oral, 0.5 h, individual rats
[21] = evocalcet 0.1 mg/kg oral, 2 h, individual rats
[22] = evocalcet 0.1 mg/kg oral, 4 h, individual rats
[23] = evocalcet 0.1 mg/kg oral, 6 h, individual rats
[24] = evocalcet 0.1 mg/kg oral, 8 h, individual rats
[25] = evocalcet 0.1 mg/kg oral, 24 h, individual rats
[26] = single oral dose, vs vehicle group

C[C@@H](N[C@H]1CCN(c2ccc(CC(=O)O)cc2)C1)c1cccc2ccccc12 [evocalcet] was tested, and the “Serum PTH levels” value ([1]; 5 μg/kg, 1 h, individual animals) was 19.1 and 25.6 and 158.9, the “Serum PTH levels” value ([1]; 5 μg/kg, 1 h, mean) was 67.9 and the “Serum PTH levels” value ([1]; 5 μg/kg, 4 h, individual animals) was 52.9 and 115.9 and 433.3. The “Serum PTH levels” value ([1]; 5 μg/kg, 4 h, mean) was 200.7, the “Serum PTH levels” value ([1]; 5 μg/kg, before administration, individual animals) was 92.1 and 97.8 and 541.4 and the “Serum PTH levels” value ([1]; 5 μg/kg, before administration, mean) was 243.8. The “Serum PTH levels” value ([1]; 150 μg/kg, 1 h, individual animals) was 36.4 and 52.9 and 258.2, the “Serum PTH levels” value ([1]; 150 μg/kg, 1 h, mean) was 115.9 and the “Serum PTH levels” value ([1]; 150 μg/kg, 4 h, individual animals) was 81.0 and 188.4 and 311.9. For the same compound, the “Serum PTH levels” value ([1]; 150 μg/kg, 4 h, mean) was 193.8, the “Serum PTH levels” value ([1]; 150 μg/kg, before administration, individual animals) was 57.2 and 203.0 and 236.6 and the “Serum PTH levels” value ([1]; 150 μg/kg, before administration, mean) was 165.6. For the same compound, the “Minimum effective dose on PTH reduction” value ([1]; oral) was 0.005 mg/kg, the “Gastric Emptying” value ([2]; 0.3 mg/kg, group mean) was 67.83% and the “Gastric Emptying” value ([2]; 0.3 mg/kg, individual rats) was 75.29% and 74.04% and 68.43% and 31.88% and 68.64% and 79.44% and 65.73% and 79.23%. For the same compound, the “Gastric Emptying” value ([2]; 1 mg/kg, group mean) was 65.89%, the “Gastric Emptying” value ([2]; 1 mg/kg, individual rats) was 38.94% and 71.96% and 52.65% and 74.45% and 73.42% and 65.94% and 77.15% and 72.59% and the “Gastric Emptying” value ([2]; 3 mg/kg, group mean) was 61.58%. The “Gastric Emptying” value ([2]; 3 mg/kg, individual rats) was 69.47% and 67.19% and 53.48% and 63.03% and 78.82% and 61.16% and 64.49% and 34.99%, the “Dose (3 mg/kg) without delay of gastric emptying relative to the dose required for a significant PTH reduction” value ([2]; oral) was 100 fold and the “Effect on gastric emptying” value ([2]; oral 0.3, 1 and 3 mg/kg (any dose)) was “no significant effects”. For the same compound, the “Serum Ca” value [3, 5] was 10.9, the “Serum Ca” value [3, 6] was 10.2 and 11.0 and 11.2 and 10.8 and the “Serum Ca” value [3, 7] was 11.0. The “Serum Ca” value [3, 8] was 10.2 and 10.6 and 11.8 and 10.4 and 11.2 and 11.4, the “Serum Ca” value [3, 9] was 10.8 and the “Serum Ca” value [3, 10] was 10.0 and 11.2 and 10.6 and 10.8 and 11.0 and 10.4. For the same compound, the “Serum Ca” value [3, 11] was 10.4, the “Serum Ca” value [3, 12] was 10.2 and 10.8 and 10.0 and 10.6 and 10.4 and the “Serum Ca” value [3, 13] was 10.3. For the same compound, the “Serum Ca” value [3, 14] was 10.0 and 10.4 and 10.2 and 10.6, the “Serum Ca” value [3, 15] was 10.5 and the “Serum Ca” value [3, 16] was 9.6 and 10.0 and 8.6 and 10.6 and 11.4 and 10.8 and 12.6. The “Serum Ca” value [3, 17] was 10.5, the “Serum Ca” value [3, 18] was 10.2 and 10.4 and 10.6 and 10.8 and the “Serum Ca” value ([3]; evocalcet 0.1 mg/kg oral, 0 h (before administration), group mean, n = 10) was 10.9. The “Serum Ca” value [3, 19] was 11.0 and 10.8, the “Serum Ca” value ([3]; evocalcet 0.1 mg/kg oral, 0.5 h, group mean, n = 10) was 10.7 and the “Serum Ca” value [3, 20] was 10.6 and 10.0. The “Serum Ca” value ([3]; evocalcet 0.1 mg/kg oral, 2 h, group mean, n = 10) was 10.1, the “Serum Ca” value [3, 21] was 10.2 and 10.0 and 9.8 and the “Serum Ca” value ([3]; evocalcet 0.1 mg/kg oral, 4 h, group mean, n = 10) was 9.8. The “Serum Ca” value [3, 22] was 9.8 and 10.0 and 10.2 and 9.6, the “Serum Ca” value ([3]; evocalcet 0.1 mg/kg oral, 6 h, group mean, n = 10) was 9.9 and the “Serum Ca” value [3, 23] was 10.0 and 10.4 and 9.8. For the same compound, the “Serum Ca” value ([3]; evocalcet 0.1 mg/kg oral, 8 h, group mean, n = 10) was 10.6, the “Serum Ca” value [3, 24] was 10.4 and 10.8 and 10.6 and the “Serum Ca” value ([3]; evocalcet 0.1 mg/kg oral, 24 h, group mean, n = 10) was 11.6. For the same compound, the “Serum Ca” value [3, 25] was 12.6 and 10.8 and 12.0, the “Serum Ca” value ([3]; evocalcet 0.3 mg/kg oral, 0 h (before administration), individual rats) was 10.4 and 10.8 and 11.2 and the “Serum Ca” value ([3]; evocalcet 0.3 mg/kg oral, 0.5 h, individual rats) was 9.6 and 9.4 and 10.4 and 10.0. The “Serum Ca” value ([3]; evocalcet 0.3 mg/kg oral, 2 h, individual rats) was 9.0 and 9.2 and 9.4 and 9.8, the “Serum Ca” value ([3]; evocalcet 0.3 mg/kg oral, 4 h, individual rats) was 8.8 and 9.6 and 9.4 and 9.8 and 9.2 and 9.0 and the “Serum Ca” value ([3]; evocalcet 0.3 mg/kg oral, 6 h, individual rats) was 8.6 and 9.8 and 9.6 and 9.4 and 9.0. For the same compound, the “Serum Ca” value ([3]; evocalcet 0.3 mg/kg oral, 8 h, individual rats) was 9.8 and 10.4 and 9.4 and 8.8, the “Serum Ca” value ([3]; evocalcet 0.3 mg/kg oral, 24 h, individual rats) was 14.8 and 11.4 and 11.0 and 11.2 and the “Doses that significantly reduced the serum calcium level” value [3, 26] was ≥ 0.1 mg/kg. The “Serum PTH” value [4, 5] was 117.288, the “Serum PTH” value [4, 6] was 129.159 and 98.086 and 98.874 and 128.658 and 81.261 and 126.366 and 104.386 and 122.715 and 112.906 and 170.470 and the “Serum PTH” value [4, 7] was 51.998. For the same compound, the “Serum PTH” value [4, 8] was 33.535 and 36.787 and 59.553 and 50.196 and 64.403 and 70.451 and 74.902 and 34.333 and 15.500 and 80.322, the “Serum PTH” value [4, 9] was 103.394 and the “Serum PTH” value [4, 10] was 15.500 and 69.801 and 132.927 and 117.200 and 119.941 and 109.480 and 83.508 and 88.630 and 158.250 and 138.699. The “Serum PTH” value [4, 11] was 147.651, the “Serum PTH” value [4, 12] was 111.671 and 66.789 and 176.435 and 179.922 and 200.545 and 117.161 and 137.784 and 93.718 and 165.530 and 226.956 and the “Serum PTH” value [4, 13] was 186.457. For the same compound, the “Serum PTH” value [4, 14] was 167.854 and 143.511 and 260.179 and 212.225 and 211.330 and 175.263 and 176.565 and 131.380 and 164.597 and 221.669, the “Serum PTH” value [4, 15] was 183.556 and the “Serum PTH” value [4, 16] was 144.862 and 141.432 and 139.974 and 226.246 and 213.297 and 177.022 and 177.107 and 148.207 and 214.155 and 253.260. The “Serum PTH” value [4, 17] was 111.913, the “Serum PTH” value [4, 18] was 85.800 and 128.079 and 93.520 and 115.512 and 45.316 and 85.890 and 75.657 and 215.959 and 131.939 and 141.454 and the “Serum PTH” value [4, 19] was 112.047 and 96.726 and 90.998 and 167.821. The “Serum PTH” value [4, 20] was 33.820 and 15.500, the “Serum PTH” value [4, 21] was 42.097 and 52.053 and 15.500 and the “Serum PTH” value [4, 22] was 266.348 and 163.156 and 79.252 and 192.014. For the same compound, the “Serum PTH” value [4, 23] was 153.036 and 149.943 and 133.171 and 173.553, the “Serum PTH” value [4, 24] was 303.000 and 168.617 and 221.701 and the “Serum PTH” value [4, 25] was 120.270 and 80.325 and 122.155. For the same compound, the “Strength of pharmacological effect relative to cinacalcet at the same dosage” value ([4]; oral) was “approximately 30 times” and the “Doses that significantly reduced the serum PTH level” value [4, 26] was ≥ 0.03 mg/kg.
